# Test results from publication PMC3984001 (Neuropharmacology, 2014).
# Like-named read-outs stand apart in the source and are kept apart here.
# Key:
# Type in all cases: cell-based
# human α2(T22I)β2-nAChR [1] = target: T1, human α2(T22I)β2-nAChR (Homo sapiens, UniProt P17787+Q15822, T22I); conditions: for Higher agonist sensitivity of 1:10 (HS) than 1:1 or 10:1 receptors: α2(T22I):β2 1:10 vs 1:1 or 10:1 cRNA; for Lower Imax of 10:1 than 1:1 receptors / Lower agonist sensitivity of 10:1 than 1:1 receptors: α2(T22I):β2 10:1 vs 1:1 cRNA; for Peak response Imax (Mean±SE): at the Imax concentration of the agonist
# T1 sequence (Q15822 27-529): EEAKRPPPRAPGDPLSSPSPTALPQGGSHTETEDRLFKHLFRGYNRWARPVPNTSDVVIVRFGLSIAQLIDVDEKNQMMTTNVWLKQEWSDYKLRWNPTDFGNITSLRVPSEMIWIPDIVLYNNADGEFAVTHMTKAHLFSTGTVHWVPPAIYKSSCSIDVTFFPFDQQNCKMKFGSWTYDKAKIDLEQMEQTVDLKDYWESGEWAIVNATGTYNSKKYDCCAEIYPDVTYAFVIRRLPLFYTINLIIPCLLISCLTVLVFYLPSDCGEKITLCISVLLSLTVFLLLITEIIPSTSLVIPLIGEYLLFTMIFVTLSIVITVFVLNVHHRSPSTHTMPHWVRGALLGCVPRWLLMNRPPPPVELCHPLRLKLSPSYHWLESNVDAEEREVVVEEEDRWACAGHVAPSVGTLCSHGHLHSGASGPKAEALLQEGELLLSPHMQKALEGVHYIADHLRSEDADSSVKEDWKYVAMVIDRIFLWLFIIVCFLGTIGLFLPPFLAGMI
# T1 sequence (P17787 26-502): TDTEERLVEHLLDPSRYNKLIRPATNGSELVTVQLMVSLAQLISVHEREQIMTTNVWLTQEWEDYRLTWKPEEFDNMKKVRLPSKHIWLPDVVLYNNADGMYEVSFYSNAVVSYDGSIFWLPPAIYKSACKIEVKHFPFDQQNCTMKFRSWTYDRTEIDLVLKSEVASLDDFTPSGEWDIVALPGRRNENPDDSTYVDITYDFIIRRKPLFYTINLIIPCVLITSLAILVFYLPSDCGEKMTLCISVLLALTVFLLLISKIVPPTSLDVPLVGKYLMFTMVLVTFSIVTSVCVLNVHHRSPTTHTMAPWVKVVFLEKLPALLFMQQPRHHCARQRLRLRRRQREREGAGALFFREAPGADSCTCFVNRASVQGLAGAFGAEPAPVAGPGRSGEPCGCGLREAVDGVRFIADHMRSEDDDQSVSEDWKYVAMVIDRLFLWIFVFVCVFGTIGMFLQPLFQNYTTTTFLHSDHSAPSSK
# hα2hβ2wt-nAChR = hα2hβ2wt-nAChR (Homo sapiens, UniProt P17787+Q15822); conditions: 316 μM ACh or 100 μM nicotine
# hα2hβ2wt-nAChR, sequence (Q15822 27-529): as the sequence (Q15822 27-529) above
# hα2hβ2wt-nAChR, sequence (P17787 26-502): as the sequence (P17787 26-502) above
# human α2β2-nAChR [2] = target: T2, human α2β2-nAChR (Homo sapiens, UniProt P17787+Q15822); conditions: for Peak current: hα2hβ2opt, 316 μM ACh or 100 μM nicotine; for Higher agonist sensitivity of 1:10 (HS) than 1:1 receptors: α2:β2 1:10 vs 1:1 cRNA; for Higher agonist sensitivity of 1:10 (HS) than 1:1 receptors / Higher agonist sensitivity of 1:10 (HS) than 10:1 (LS) receptors: range printed for ACh or nicotine together; for Lower Imax of 1:10 (HS) than 1:1 or 10:1 receptors: α2:β2 1:10 vs 1:1 or 10:1 cRNA; for Higher agonist sensitivity of 1:10 (HS) than 10:1 (LS) receptors: α2:β2 1:10 vs 10:1 cRNA; for Lower Imax of 10:1 than 1:1 receptors / Lower agonist sensitivity of 10:1 than 1:1 receptors: α2:β2 10:1 vs 1:1 cRNA; for Peak response Imax (Mean±SE): at the Imax concentration of the agonist; for EC50: Potency EC50 (95% CI), −70 mV
# T2 sequence (Q15822 27-529): as the sequence (Q15822 27-529) above
# T2 sequence (P17787 26-502): as the sequence (P17787 26-502) above
# human α2(T22I)β2-nAChR [3] = target: T1, human α2(T22I)β2-nAChR; test: Mecamylamine block of agonist-induced Imax responses; conditions: 1000 μM mecamylamine; α2(T22I):β2 1:1, 10:1 or 1:10; data not shown
# human α2(T22I)β4-nAChR [4] = target: T3, human α2(T22I)β4-nAChR (Homo sapiens, UniProt P30926+Q15822, T22I); test: Mecamylamine block of agonist-induced peak currents; conditions: ACH-2, read-out: Inhibition of ACh-induced peak current responses, 1000 μM mecamylamine; 316 μM ACh; α2(T22I):β4 1:1
# T3 sequence (Q15822 27-529): as the sequence (Q15822 27-529) above
# T3 sequence (P30926 22-498): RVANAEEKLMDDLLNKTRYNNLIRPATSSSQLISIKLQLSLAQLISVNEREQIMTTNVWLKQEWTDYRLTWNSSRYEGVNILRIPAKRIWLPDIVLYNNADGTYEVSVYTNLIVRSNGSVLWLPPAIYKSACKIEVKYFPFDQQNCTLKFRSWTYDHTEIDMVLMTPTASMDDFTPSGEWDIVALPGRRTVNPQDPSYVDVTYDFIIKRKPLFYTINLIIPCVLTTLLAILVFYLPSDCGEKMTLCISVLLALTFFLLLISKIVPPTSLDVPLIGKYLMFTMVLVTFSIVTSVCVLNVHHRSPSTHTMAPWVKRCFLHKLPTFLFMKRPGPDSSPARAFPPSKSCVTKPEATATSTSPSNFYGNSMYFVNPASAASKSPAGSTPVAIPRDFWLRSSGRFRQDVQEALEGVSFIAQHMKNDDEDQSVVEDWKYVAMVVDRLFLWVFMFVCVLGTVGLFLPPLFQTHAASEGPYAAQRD
# human α2β2-nAChR [5] = target: T2, human α2β2-nAChR; test: Mecamylamine block of agonist-induced Imax responses; conditions: 1000 μM mecamylamine; α2:β2 1:1, 10:1 or 1:10; data not shown
# human α2(T22I)β4-nAChR [6] = target: T3, human α2(T22I)β4-nAChR; conditions: for EC50: Potency EC50 (95% CI), −70 mV; for Peak response Imax (Mean±SE): at the Imax concentration of the agonist
# human α2β4-nAChR = human α2β4-nAChR (Homo sapiens, UniProt P30926+Q15822); conditions: for EC50: Potency EC50 (95% CI), −70 mV; for Peak response Imax (Mean±SE): at the Imax concentration of the agonist
# human α2β4-nAChR, sequence (Q15822 27-529): as the sequence (Q15822 27-529) above
# human α2β4-nAChR, sequence (P30926 22-498): as the sequence (P30926 22-498) above
smiles,measurement,setting,value
"CC(=O)OCC[N+](C)(C)C [ACh, acetylcholine]",Higher agonist sensitivity of 1:10 (HS) than 1:1 or 10:1 receptors,human α2(T22I)β2-nAChR [1],4–9 fold
same,Lower Imax of 10:1 than 1:1 receptors,human α2(T22I)β2-nAChR [1],~ 25 fold
same,Lower agonist sensitivity of 10:1 than 1:1 receptors,human α2(T22I)β2-nAChR [1],~ 2 fold
same,Hill coefficient nH ± SE,human α2(T22I)β2-nAChR [1]; α2(T22I)β2(1:1),0.9 ± 0.08
same,Peak response Imax (Mean±SE),human α2(T22I)β2-nAChR [1]; α2(T22I)β2(1:1),1326 ± 214 nA
same,Peak response Imax (Mean±SE),human α2(T22I)β2-nAChR [1]; α2(T22I)β2(1:10),952 ± 128 nA
same,Hill coefficient nH ± SE,human α2(T22I)β2-nAChR [1]; α2(T22I)β2(10:1),0.9 ± 0.3
same,Peak response Imax (Mean±SE),human α2(T22I)β2-nAChR [1]; α2(T22I)β2(10:1),54 ± 9 nA
same,Peak current,hα2hβ2wt-nAChR,28±6 nA
same,Peak current,human α2β2-nAChR [2],406±89 nA
same,Higher agonist sensitivity of 1:10 (HS) than 1:1 receptors,human α2β2-nAChR [2],2–3 fold
same,Lower Imax of 1:10 (HS) than 1:1 or 10:1 receptors,human α2β2-nAChR [2],47–70%
same,Higher agonist sensitivity of 1:10 (HS) than 10:1 (LS) receptors,human α2β2-nAChR [2],8–18 fold
same,Lower Imax of 10:1 than 1:1 receptors,human α2β2-nAChR [2],~ 43%
same,Lower agonist sensitivity of 10:1 than 1:1 receptors,human α2β2-nAChR [2],~ 5 fold
same,Hill coefficient nH ± SE,human α2β2-nAChR [2]; α2β2(1:1),0.7 ± 0.05
same,Peak response Imax (Mean±SE),human α2β2-nAChR [2]; α2β2(1:1),551 ± 62 nA
same,Hill coefficient nH ± SE,human α2β2-nAChR [2]; α2β2(1:10),1 ± 0.08
same,Peak response Imax (Mean±SE),human α2β2-nAChR [2]; α2β2(1:10),167 ± 18 nA
same,Hill coefficient nH ± SE,human α2β2-nAChR [2]; α2β2(10:1),0.9 ± 0.08
same,Peak response Imax (Mean±SE),human α2β2-nAChR [2]; α2β2(10:1),314 ± 84 nA
"CNC1(C)C2CCC(C2)C1(C)C (centres unmarked) [Mecamylamine, mecamylamine]",Effect on ACh or nicotine induced Imax responses,human α2(T22I)β2-nAChR [3],completely abolished
same,inhibition at 1000 µM,human α2(T22I)β4-nAChR [4],99%
same,Effect on ACh or nicotine induced Imax responses,human α2β2-nAChR [5],completely abolished
"CN1CCC[C@H]1c1cccnc1 [Nicotine, L-nicotine]",EC50,"human α2(T22I)β2-nAChR [1]; Potency EC50 (95% CI), α2(T22I)β2(1:1) cRNA ratio, −70 mV",6.7 µM
same,Higher agonist sensitivity of 1:10 (HS) than 1:1 or 10:1 receptors,human α2(T22I)β2-nAChR [1],3–5 fold
same,Lower Imax of 10:1 than 1:1 receptors,human α2(T22I)β2-nAChR [1],~ 23 fold
same,Lower agonist sensitivity of 10:1 than 1:1 receptors,human α2(T22I)β2-nAChR [1],~ 2 fold
same,Hill coefficient nH ± SE,human α2(T22I)β2-nAChR [1]; α2(T22I)β2(1:1),1.2 ± 0.08
same,Imax Conc. (concentration where Imax is achieved),human α2(T22I)β2-nAChR [1]; α2(T22I)β2(1:1),100 µM
same,Peak response Imax (Mean±SE),human α2(T22I)β2-nAChR [1]; α2(T22I)β2(1:1),1463 ± 136 nA
same,Hill coefficient nH ± SE,human α2(T22I)β2-nAChR [1]; α2(T22I)β2(1:10),1 ± 0.07
same,Imax Conc. (concentration where Imax is achieved),human α2(T22I)β2-nAChR [1]; α2(T22I)β2(1:10),31.6 µM
same,Peak response Imax (Mean±SE),human α2(T22I)β2-nAChR [1]; α2(T22I)β2(1:10),1004 ± 91 nA
same,Hill coefficient nH ± SE,human α2(T22I)β2-nAChR [1]; α2(T22I)β2(10:1),1.1 ± 0.2
same,Imax Conc. (concentration where Imax is achieved),human α2(T22I)β2-nAChR [1]; α2(T22I)β2(10:1),100 µM
same,Peak response Imax (Mean±SE),human α2(T22I)β2-nAChR [1]; α2(T22I)β2(10:1),62 ± 12 nA
same,Peak current,hα2hβ2wt-nAChR,24±5 nA
same,EC50,human α2β2-nAChR [2]; α2β2(1:1) cRNA ratio,1.8 µM
same,EC50,"human α2β2-nAChR [2]; α2β2(1:10) cRNA ratio, putative HS",0.83 µM
same,EC50,"human α2β2-nAChR [2]; α2β2(10:1) cRNA ratio, putative LS",6.3 µM
same,Peak current,human α2β2-nAChR [2],291±55 nA
same,Higher agonist sensitivity of 1:10 (HS) than 1:1 receptors,human α2β2-nAChR [2],2–3 fold
same,Lower Imax of 1:10 (HS) than 1:1 or 10:1 receptors,human α2β2-nAChR [2],72–82%
same,Higher agonist sensitivity of 1:10 (HS) than 10:1 (LS) receptors,human α2β2-nAChR [2],8–18 fold
same,Lower Imax of 10:1 than 1:1 receptors,human α2β2-nAChR [2],~ 36%
same,Lower agonist sensitivity of 10:1 than 1:1 receptors,human α2β2-nAChR [2],~ 3.5 fold
same,Hill coefficient nH ± SE,human α2β2-nAChR [2]; α2β2(1:1),0.8 ± 0.08
same,Imax Conc. (concentration where Imax is achieved),human α2β2-nAChR [2]; α2β2(1:1),100 µM
same,Peak response Imax (Mean±SE),human α2β2-nAChR [2]; α2β2(1:1),373 ± 33 nA
same,Hill coefficient nH ± SE,human α2β2-nAChR [2]; α2β2(1:10),1.1 ± 0.13
same,Imax Conc. (concentration where Imax is achieved),human α2β2-nAChR [2]; α2β2(1:10),31.6 µM
same,Peak response Imax (Mean±SE),human α2β2-nAChR [2]; α2β2(1:10),68 ± 7.8 nA
same,Hill coefficient nH ± SE,human α2β2-nAChR [2]; α2β2(10:1),1.2 ± 0.06
same,Imax Conc. (concentration where Imax is achieved),human α2β2-nAChR [2]; α2β2(10:1),100 µM
same,Peak response Imax (Mean±SE),human α2β2-nAChR [2]; α2β2(10:1),239 ± 21 nA
same,EC50,human α2(T22I)β4-nAChR [6]; α2(T22I)β4(1:1) cRNA ratio,12 µM
same,EC50,"human α2(T22I)β4-nAChR [6]; α2(T22I)β4(1:10) cRNA ratio, putative HS",2.6 µM
same,EC50,"human α2(T22I)β4-nAChR [6]; α2(T22I)β4(10:1) cRNA ratio, putative LS",14 µM
same,Hill coefficient nH ± SE,human α2(T22I)β4-nAChR [6]; α2(T22I)β4(1:1),1.8 ± 0.07
same,Imax Conc. (concentration where Imax is achieved),human α2(T22I)β4-nAChR [6]; α2(T22I)β4(1:1),100 µM
same,Peak response Imax (Mean±SE),human α2(T22I)β4-nAChR [6]; α2(T22I)β4(1:1),1527 ± 245 nA
same,Peak response Imax (Mean±SE),"human α2(T22I)β4-nAChR [6]; α2(T22I)β4(1:1), listed as nicotine",1527 nA
same,Hill coefficient nH ± SE,human α2(T22I)β4-nAChR [6]; α2(T22I)β4(1:10),1.2 ± 0.04
same,Imax Conc. (concentration where Imax is achieved),human α2(T22I)β4-nAChR [6]; α2(T22I)β4(1:10),100 µM
same,Peak response Imax (Mean±SE),human α2(T22I)β4-nAChR [6]; α2(T22I)β4(1:10),3996 ± 168 nA
same,Hill coefficient nH ± SE,human α2(T22I)β4-nAChR [6]; α2(T22I)β4(10:1),2 ± 0.2
same,Imax Conc. (concentration where Imax is achieved),human α2(T22I)β4-nAChR [6]; α2(T22I)β4(10:1),100 µM
same,Peak response Imax (Mean±SE),human α2(T22I)β4-nAChR [6]; α2(T22I)β4(10:1),402 ± 70 nA
same,Peak current lower than wild-type α2β4,"human α2(T22I)β4-nAChR [6]; α2(T22I)β4 vs α2β4, 1:1 cRNA (mixture of isoforms)",~ 30%
same,EC50,human α2β4-nAChR; α2β4(1:1) cRNA ratio,4.7 µM
same,EC50,"human α2β4-nAChR; α2β4(1:10) cRNA ratio, putative HS",3.8 µM
same,EC50,"human α2β4-nAChR; α2β4(10:1) cRNA ratio, putative LS",11 µM
same,Hill coefficient nH ± SE,human α2β4-nAChR; α2β4(1:1),1.1 ± 0.1
same,Imax Conc. (concentration where Imax is achieved),human α2β4-nAChR; α2β4(1:1),100 µM
same,Peak response Imax (Mean±SE),human α2β4-nAChR; α2β4(1:1),2088 ± 96 nA
same,Peak response Imax (Mean±SE),"human α2β4-nAChR; α2β4(1:1), listed as nicotine",2088 nA
same,Hill coefficient nH ± SE,human α2β4-nAChR; α2β4(1:10),1.3 ± 0.08
same,Imax Conc. (concentration where Imax is achieved),human α2β4-nAChR; α2β4(1:10),100 µM
same,Peak response Imax (Mean±SE),human α2β4-nAChR; α2β4(1:10),1814 ± 155 nA
same,Hill coefficient nH ± SE,human α2β4-nAChR; α2β4(10:1),1.6 ± 0.09
same,Imax Conc. (concentration where Imax is achieved),human α2β4-nAChR; α2β4(10:1),100 µM
same,Peak response Imax (Mean±SE),human α2β4-nAChR; α2β4(10:1),1139 ± 93 nA
